{
  "source": "patent US8067532B2",
  "about": "“Modifications of peptide compositions to increase stability and delivery efficiency” (KAI Pharmaceuticals, Inc., priority 2007, dated 2011)",
  "key": {"[1]": {"assay": "Effect of D-peptides on plasma stability of KAI-9706", "conditions": "All-L, scrambled or retro-inverso (R/I) carrier and cargo", "experimental": "KAI-9706 was engineered with D-amino acids to determine their impact on peptide composition stability. Unmodified KAI-9706 was compared to a peptide composition with the same amino acid sequence, however the amino acids used were d-enantiomers instead of 1-amino acids. A retro-inverso version and a scrambled version of the peptide composition were also prepared."}, "[2]": {"assay": "In vitro biological stability of linear epsilon PKC inhibitors in human serum", "format": "in vitro ADME", "conditions": "LC/MS; for stability in human serum (percent remaining over time): 100 μg/ml, room temperature", "experimental": "The peptides were then analyzed by LC/MS."}, "[3]": {"conditions": "versus KAI-9706 and KAI-9803"}, "[4]": {"conditions": "versus KAI-9706 and KAI-9803", "remark": "listed apart in the source"}, "[5]": {"assay": "Plasma stability of capped peptides (KAI-9706 modified step-wise at amino and carboxy termini)", "format": "in vitro ADME, rat", "conditions": "versus uncapped KAI-9706", "text": "Plasma stability of capped peptides was compared."}, "[6]": {"test_system": "cardiac tissue", "assay": "Langendorff assay, in vitro post-ischemia model (CK release)", "parameters": "species or system rat", "conditions": "versus the unmodified form", "experimental": "The ability of the capped composition to inhibit ischemic damage in a rat heat model (Langendorff Assay) was evaluated versus the uncapped form."}, "[7]": {"test_system": "brain tissue", "assay": "Stroke model, percent infarction", "format": "in vivo", "conditions": "versus uncapped KAI-9706", "experimental": "KAI-1455 was tested in a stroke model."}, "[8]": {"conditions": "versus KAI-9706 and KAI-9803", "remark": "listed apart in the source"}},
  "note": "No end group written: not given here.",
  "data": [
    {"compound": "CC[C@H](C)[C@H](NC(=O)[C@@H]1CCCN1C(=O)[C@H](C)NC(=O)[C@H](CC(=O)O)NC(=O)[C@H](Cc1c[nH]cn1)NC(=O)[C@@H](N)CSSC[C@H](N)C(=O)N[C@@H](Cc1ccc(O)cc1)C(=O)NCC(=O)N[C@@H](CCCNC(=N)N)C(=O)N[C@@H](CCCCN)C(=O)N[C@@H](CCCCN)C(=O)N[C@@H](CCCNC(=N)N)C(=O)N[C@@H](CCCNC(=N)N)C(=O)N[C@@H](CCC(N)=O)C(=O)N[C@@H](CCCNC(=N)N)C(=O)N[C@@H](CCCNC(=N)N)C(=O)N[C@@H](CCCNC(=N)N)C(=O)O)C(=O)NCC(=O)N[C@@H](Cc1ccc(O)cc1)C(=O)N[C@@H](CC(=O)O)C(=O)O", "note": "[KAI-9706]", "values": [
      {"measurement": "% parent remaining at 15 mins", "setting": "[1]", "value": 1, "unit": "%"}
    ]},
    {"compound": "EAVSLKPTGGYGRKKRRQRRR-NH2 [KP-1633]", "values": [
      {"measurement": "stability in human serum (percent remaining over time)", "setting": "[2]", "value": "increased stability"}
    ]},
    {"compound": "CC[C@H](C)[C@H](NC(=O)[C@@H]1CCCN1C(=O)[C@H](C)NC(=O)[C@H](CC(=O)O)NC(=O)[C@H](Cc1c[nH]cn1)NC(=O)[C@@H](N)CSSC[C@H](NC(C)=O)C(=O)N[C@@H](Cc1ccc(O)cc1)C(=O)NCC(=O)N[C@@H](CCCNC(=N)N)C(=O)N[C@@H](CCCCN)C(=O)N[C@@H](CCCCN)C(=O)N[C@@H](CCCNC(=N)N)C(=O)N[C@@H](CCCNC(=N)N)C(=O)N[C@@H](CCC(N)=O)C(=O)N[C@@H](CCCNC(=N)N)C(=O)N[C@@H](CCCNC(=N)N)C(=O)N[C@@H](CCCNC(=N)N)C(N)=O)C(=O)NCC(=O)N[C@@H](Cc1ccc(O)cc1)C(=O)N[C@@H](CC(=O)O)C(=O)O", "note": "[KAI-1455]", "values": [
      {"measurement": "stability in rat serum (percent intact over time)", "setting": "[3]", "value": "increased plasma stability"},
      {"measurement": "stability in human serum (percent intact over time)", "setting": "[4]", "value": "increased plasma stability"},
      {"measurement": "plasma half life", "setting": "[5]", "value": "increase the plasma half life"},
      {"measurement": "ability to inhibit ischemic damage (potency, CK release)", "setting": "[6]", "value": "Maintains In Vitro Potency"},
      {"measurement": "protection to brain tissue as judged by percent infract", "setting": "[7]", "value": "increased protection to brain tissue"},
      {"measurement": "stability in pig serum (percent intact over time)", "setting": "[8]", "value": "increased plasma stability"}
    ]},
    {"compound": "Ac-EAVSLKPTGGYGRKKRRQRRR-NH2 [KP-1678]", "values": [
      {"measurement": "stability in human serum (percent remaining over time)", "setting": "[2]", "value": "increased stability"}
    ]},
    {"compound": "KP-1680: linear epsilon PKC inhibitor peptide shown in FIG. 16 (EAVSLKPTGGYGRKKRRQRRR)", "values": [
      {"measurement": "degradation products / metabolized forms", "setting": "[2]; serum", "value": "sequential cleavage of arginine residues from the C-terminus"}
    ]}
  ]
}
